{
  "source": "patent US20260014129A1",
  "about": "“MITOCHONDRIAL PYRUVATE METABOLISM INHIBITORS FOR TREATING CHRONIC MYELOID LEUKEMIA” (The University Court of the University of Glasgow, priority 2022, published 2026)",
  "key": {"[1]": {"test_system": "CML CD34+ cells", "assay": "Colony forming cell (CFC) assay of CML CD34+ cells", "assay_type": "cell-based, human", "settings": "72 hours, n=6 CML patients"}, "[2]": {"test_system": "normal CD34+ cells", "assay": "Colony forming cell (CFC) assay of normal CD34+ cells", "assay_type": "cell-based, human", "settings": "72 hours, n=3 healthy donors"}, "[3]": {"test_system": "CML CD34+ cells", "assay": "13C stable isotope tracing (glucose, glutamine, palmitate) in primary CML CD34+ cells", "assay_type": "cell-based, human", "method": "For conjugation of palmitate, a 20 mM stock was made in 100% EtOH. This was incubated on a shaking heater, 60° C. until the solution clarified. The palmitate was then added to 10% BSA (ultra-fatty acid free in EBSS, Roche, 03117057001) to give a palmitate:BSA ratio of 1:3 BSA. This solution was left for 15 min in water bath (37° C.), and then added to final concentration in complete medium. For cell line experiments, the medium was RPMI with 10% dialysed FBS and 1% penicillin/streptomycin. For tracing experiments 11 mM ^13C6 glucose was added to glucose-free RPMI.\n(§1) Cells were counted using a CASY counter with the following parameters: E-cur 7.5-22.5, N-cur 5.25-20.5. Cell number was multiplied by peak volume (size) and this number was used to calculate volume of solvent to extract in. Cells were pelleted by centrifugation (400 RCF, 10 minutes, room temperature) at which medium was removed for YSI analysis. Cells were then washed twice with ice cold PBS (Calcium and Magnesium free: Thermo Fisher Scientific) with pulse centrifugation (12,000RCF, 15 seconds, 4° C.) used between and after washes. Cells were then extracted in LC-grade ACN:MeOH:H2O solvent (−20° C., 5:3:2) by disrupting the pellet by pipetting followed by a 5 second vortex. Finally, debris was pelleted by centrifugation (16,000RCF, 10 minutes, 4° C.), supernatant transferred to LC-MS glass vials that were stored at −80° C. until analysis.\n(§2) The peak areas of different metabolites were determined using Tracefinder 4.1 software (Thermo Fisher Scientific). Metabolites were identified by accurate mass of the singly charged ion and by known retention times on the pHILIC column. A commercially available standard compound mix (Merck: MSMLS-1EA) had been analysed previously on our LC-MS system to determine accurate ion masses and retention times. The 13C labelling was determined by quantifying peak areas for the accurate mass of all isotopologues of each metabolite.\nBiological and technical replicates were processed through Autoplotter (56) and natural abundance was corrected for. Fraction of enrichment was calculated as m+2 and above. For CML samples treated with or without imatinib, multiple paired T-tests were conducted on Log 10 transformed values in Graphpad Prism. The correction for multiple comparisons was the two-stage step-up method of Benjamini, Krieger and Yekutieli with an FDR (Q) value of 10%. For volcano plots Log 10 FC vs Log 10 (q value) are plotted with q values>5% in red and >10% in blue. For normal vs CML comparisons, the process was the same with the exception that unpaired t-tests were used. For PC activity in normal vs CML, this is denoted by fraction m+3. For imatinib vs untreated we look at relative activity to PDH. IE., the m+3/m+2 ratio and conducted multiple t-tests with correction for multiple comparisons being the two-stage step-up method of Benjamini, Krieger and Yekutieli with an FDR (Q) value of 10%."}, "[4]": {"target": "T1, MPC (Homo sapiens, UniProt O95563+Q9Y5U8)", "T1 sequence (Q9Y5U8 1-109)": "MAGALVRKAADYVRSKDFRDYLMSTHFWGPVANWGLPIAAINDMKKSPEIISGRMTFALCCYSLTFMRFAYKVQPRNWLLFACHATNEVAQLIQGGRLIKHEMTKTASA", "T1 sequence (O95563 1-127)": "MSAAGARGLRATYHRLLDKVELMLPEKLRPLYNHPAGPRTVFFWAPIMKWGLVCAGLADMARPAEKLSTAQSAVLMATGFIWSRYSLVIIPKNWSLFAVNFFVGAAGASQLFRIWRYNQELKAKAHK", "settings": "variety of cell types (ref 27); cited from earlier work"}, "[5]": {"test_system": "CML CD34+ cells", "assay": "LC-MS steady state metabolite analysis of primary CML CD34+ cells", "assay_type": "cell-based, human", "method": "as §1\nThe LC system composed of a ZIC-pHILIC column (SeQuant, 150×2.1 mm, 5 μm, Merck KGaA) with a ZIC-pHILIC guard column (SeQuant, 20×2.1 mm) with an UltiMate 3000 HPLC system (Thermo Fisher Scientific). The aqueous mobile-phase solvent was 20 mM ammonium carbonate-0.1% ammonium hydroxide solution and with acetonitrile being used for organic mobile phase. A linear biphasic LC gradient was conducted from 80% organic to 80% aqueous for 15 min for a total run time of 22 min. The column temperature was maintained at 45° C. flow rate set to 200 μL/min.\nThe MS used in this study was a qExactive Plus Orbitrap Mass Spectrometer (Thermo Fisher Scientific) operating in polarity switching mode. The MS set up was calibrated using a custom CALMIX in both ionization modes before analysis and a tune file targeted towards the lower m/z range was used. Full scan (MS1) data was acquired in both ionization modes in profile mode at 70,000 resolution (at m/z range 75-1000), an automatic gain control (AGC) target of 1×10^6 (max fill time of 250 ms), with spray voltages +4.5 kV (capillary +50V, tube: […], skimmer: +20V) and −3.5 kV (capillary −50V, tube: […], skimmer: −20V) and s-lens RF level of 50 for the front optics. The capillary temperature 375° C., probe temperature 50′C, sheath gas flow rate 25, auxiliary gas flow rate 15a.u. 15 and sweep gas flow rate of 1a.u.\nas §2\nTwo independent experiments were performed, data normalised to first sample in each experiment, processed through Autoplotter (56), samples as experiments, and normalised data as replicates. […] For MSDC-0160 treated samples a batch correction (to non-drug control) was used prior to analysis using Metabonalyst. Volcano plots were generated, and an FDR adjusted t-test threshold 0.1 was utilised. Note both fold changes and p-values are log transformed. Top-25 scoring metabolites are included in heatmap."}, "[6]": {"test_system": "KCL22 cell line", "assay": "Imatinib sensitivity of PC knockout KCL22 cell line", "assay_type": "cell-based, human", "settings": "data not shown"}, "[7]": {"test_system": "CML CD34+ cells", "assay": "Proliferation (cell doubling time) and apoptosis (Annexin V/7-AAD) of primary CML CD34+ cells", "settings": "imatinib 2 μM"}, "[8]": {"test_system": "phospho-AMPK", "assay": "Western blot of AMPK and phospho-AMPK in CD34+ CML cells", "assay_type": "cell-based, human", "settings": "imatinib-treated patient samples, 24 hours", "procedure": "Cells were lysed in RIPA buffer containing mini-Complete protease inhibitor cocktail and phosphatase inhibitors (both Roche). Total protein concentration was quantified using a Pierce BCA kit (Thermo Fisher Scientific: 23227). Equal amounts of protein (5-7.5 μg) were heated at 95° C. for 5 min and separated (120V) in 4-12% gels (Novex) for SDS-PAGE. Proteins were transferred onto PDVF membranes (Thermo Fisher Scientific: 21882) then blocked in 2% BSA (in Tris-buffered saline, 0.01% Tween (TBS-T)) for one hour. Next, membranes were incubated overnight at 4° C. with the primary antibodies. The membranes were rinsed three times with TBS-T, then incubated with secondary HRP-linked antibodies (1:10,000) for 1 hour at room temperature. The SuperSignal West Femto Maxi detection system was used (Thermo Fisher Scientific: 34095) and imaging was carried out using a LI-COR Odyssey Fc gel-doc system."}, "[9]": {"test_system": "CML CD34+ cells", "assay": "Mitochondrial respiratory capacity (FCCP-induced oxygen consumption rate)", "assay_type": "cell-based, human", "settings": "imatinib-treated samples"}, "[10]": {"settings": "imatinib 2 μM, 48 hours, CML CD34+ cells"}},
  "data": [
    {"molecule": "CCc1ccc(C(=O)COc2ccc(CC3SC(=O)NC3=O)cc2)nc1", "note": "(stereo not drawn) [MSDC-0160]", "values": [
      {"measurement": "number of colonies, MSDC-0160 added to imatinib", "setting": "[1]; 20 or 50 μM MSDC-0160 plus 2 μM imatinib", "result": "further concentration-dependent reduction"},
      {"measurement": "CFC potential of normal CD34+ cells, single agent", "setting": "[2]", "result": "no significant effect"},
      {"measurement": "CFC potential of normal CD34+ cells, combination treatment", "setting": "[2]; MSDC-0160 plus 2 μM imatinib", "result": "no significant effect"},
      {"measurement": "m+2 and m+3 fractions of TCA cycle metabolites", "setting": "[3]; 20 or 100 μM MSDC-0160, primary CML CD34+ samples", "result": "significant decreases to both m+2 and m+3 fractions"},
      {"measurement": "inhibition of glucose oxidation in primitive CD34+CD38- population", "setting": "[3]; compared with CD34+CD38+ progenitor population, data not shown", "result": "to a similar extent as in the CD34^+CD38^+ progenitor population"},
      {"measurement": "inhibition of labelling in stromal co-culture", "setting": "[3]; presence of stromal cells, 24-hour culture, 50 uM", "result": "also achieved in the presence of stromal cells"},
      {"measurement": "total glucose contribution and m+3 contribution to TCA cycle metabolites", "setting": "[3]; primary CML CD34+ samples, 24 hours", "result": "reduced both total glucose contribution and m+3 contribution to TCA cycle metabolites in a dose-dependent manner"},
      {"measurement": "dose required to fully inhibit labelling", "setting": "[3]; primary CML CD34+ samples, medium with Albumax II", "result": 100, "unit": "µM"},
      {"measurement": "inhibition of MPC activity", "setting": "[4]", "result": "specifically inhibit MPC activity"},
      {"measurement": "dose at which steady state analysis showed significant metabolic changes", "setting": "[5]; primary CML CD34+ samples, 24 hours, highest dose", "result": 100, "unit": "µM"}
    ]},
    {"molecule": "Cc1ccc(NC(=O)c2ccc(CN3CCN(C)CC3)cc2)cc1Nc1nccc(-c2cccnc2)n1", "note": "[imatinib]", "values": [
      {"measurement": "sensitivity to the drug after knockout of PC in KCL22", "setting": "[6]", "result": "failed to increase sensitivity"},
      {"measurement": "number of colonies", "setting": "[1]; 2 μM imatinib alone", "result": "reduced the number of colonies"},
      {"measurement": "cell proliferation (cell doubling time)", "setting": "[7]; primary CML CD34+ cells in Plasmax, p-value=0.0659", "result": "inhibited cell proliferation"},
      {"measurement": "level of apoptosis", "setting": "[7]; primary CML CD34+ cells, p-value=0.081", "result": "modest, sample-dependent increase in the level of apoptosis"},
      {"measurement": "AMPK and phospho-AMPK protein levels", "setting": "[8]", "result": "variable depending on patient sample"},
      {"measurement": "CFC potential of normal CD34+ cells, single agent", "setting": "[2]", "result": "no significant effect"},
      {"measurement": "glucose incorporation (13C-glucose labelling) in sorted CML CD34+CD38- cells", "setting": "[3]; imatinib 2 μM, 24 hours, n=3", "result": "statistically significant reduction"},
      {"measurement": "relative PC/PDH activity in CML CD34+CD38- cells", "setting": "[3]; imatinib 2 μM, 24 hours, n=3, p-value=0.0870", "result": "increased in all three patient samples"},
      {"measurement": "PC relative to PDH contribution of glucose (m+3/m+2 ratio in malate, citrate, aspartate)", "setting": "[3]; [10]", "result": "increased"},
      {"measurement": "glucose contribution to metabolite fraction labelling (13C6 glucose)", "setting": "[3]; [10]", "result": "reduced"},
      {"measurement": "glutamine contribution to metabolite fraction labelling (13C5 glutamine)", "setting": "[3]; [10]", "result": "reduced"},
      {"measurement": "palmitate contribution to metabolite fraction labelling (13C16 palmitate)", "setting": "[3]; [10]", "result": "not significantly different"},
      {"measurement": "labelled fractions of TCA cycle metabolites affected", "setting": "[3]; imatinib, primary CML CD34+ samples, not shown", "result": "only affected m+2 fractions"},
      {"measurement": "mitochondrial respiratory capacity (FCCP-induced oxygen consumption rate)", "setting": "[9]", "result": "reduced"},
      {"measurement": "ATP levels", "setting": "[5]; imatinib 2 μM, 48 hours", "result": "trend towards reduced ATP levels"},
      {"measurement": "oxidative stress, cellular redox and TCA cycle metabolites, steady state", "setting": "[5]; imatinib 2 μM, 48 hours", "result": "decreases"},
      {"measurement": "AMP/ATP ratio", "setting": "[5]; imatinib 2 μM, 48 hours, n=4 patient samples", "result": "significant increase in AMP/ATP ratio"}
    ]}
  ]
}
